Measured values as given in US20110212943A1, “NOVEL BRIDGED CYCLIC COMPOUNDS AS HISTONE DEACETYLASE INHIBITORS” (ORCHID RESEARCH LABORATORIES LIMITED, priority 2008, published 2011).

Key:
[1] = target: HDAC (Mouse Liver Extract); assay: Histone Deacetylase (HDAC) Inhibition Assay using Boc-Lys (Ac)-AMC Substrate; format: biochemical; conditions: Mouse liver enzyme, 30 minutes at 37° C.
Method: Histone Deacetylase (HDAC) Inhibition Assay using Boc-Lys (Ac)-AMC Substrate: Inhibition of HDAC has been implicated to modulate transcription and to induce apoptosis or differentiation in cancer cells. The fluorometric assay provides a fast and fluorescence based method that eliminates radioactivity, extractions or chromatography, as used in traditional assays. The assay is based on two steps. First, the HDAC fluorometric substrate, which comprises an acetylated lysine side chain, is incubated with a sample containing HDAC activity (Mouse Liver Extract). Deacetylation of the substrate sensitizes the substrate, in the second step; treatment with the Trypsin stop solution produces a fluorophore that can be easily analyzed using fluorescence plate reader.
Assay was done in 96-well black microplate and total volume of the assay was 100 μL. Mouse liver enzyme (10 mg/mL) was diluted 1:6 with HDAC buffer. Enzyme cocktail was made of 10 μL of diluted enzyme and 30 μL of HDAC buffer. 40 μL of enzyme cocktail followed by 10 μL of test compound (1 μM and 10 μM) or buffer (control) was added to each well. The plate was pre-incubated at 37° C. for 5 minutes. The HDAC reaction was started by adding 50 μL of HDAC substrate Boc-Lys (Ac)-AMC (Bachem AG, Switzerland). The plate was incubated at 37° C. for 30 minutes. The reaction was stopped by adding 100 μL of Trypsin stop solution and incubating at 37° C. for 15-30 minutes. Measuring the fluorescence at excitation wavelength of 360 nm and emission wavelength of 460 nm monitored the release of AMC. Buffer alone and substrate alone served as blank.

[2] = test system: HCT 116 (colon), NCIH460 (lung) and U251 (glioma) cell lines; assay: Anti-cancer screen (MTT growth inhibition); format: cell-based; conditions: mean over HCT 116, NCIH460 and U251 cell lines, 48 hours of incubation
Method: Experimental drugs were screened for anti-cancer activity in three cell lines using five concentrations for each compound. The cell lines—HCT 116 (colon), NCIH460 (lung) and U251 (glioma) were maintained in DMEM containing 10% fetal bovine serum. 96-well microtiter plates are inoculated with cells in 100 μL of cell suspension (5×10^4 cells/mL) for 24 hours at 37° C., 5% CO2, 95% air and 100% relative humidity. A separate plate with these cell lines is also inoculated to determine cell viability before the addition of the compounds (T0)
Following 24-hour incubation, test compounds were added to the 96 well plates. Each plate contains one of the above cell lines and the following samples in triplicate: five different dilutions (0.01, 0.1, 1, 10 and 100 μM) of four test compounds, appropriate dilutions of a cytotoxic standard and growth medium (untreated) wells. Test compounds were dissolved in DMSO to prepare 20 mM stock solutions on the day of drug addition and serial dilutions were carried out in complete growth medium at 2× strength such that 100 μL added to wells gave final concentrations (0.01, 0.1, 1, 10 and 100 μM) in the well. SAHA was used as standard drug in these experiments.
For T0 measurement, 24 hours after seeding the cells, 20 μL of 3-(4,5-dimethyl-2-thiazolyl)-2,5-diphenyl-2H-tetrazolium (MIT) solution per well was added to the ‘T0’ plate and incubated for 3 hours at 37° C. in a CO2 incubator. The plate containing cells and test compounds was treated similarly after 48 hours of incubation. After 3 hours of MTT addition, well contents were aspirated carefully followed by addition of 150 μL DMSO per well. Plates were agitated to ensure dissolution of the formazan crystals in DMSO and absorbance was read at 570 nm (A570).
Percent growth (PG) is calculated relative to the control and zero measurement wells (T0) as follows:
(Mosmann T. Rapid colorimetric assay for cellular growth and survival: application to proliferation and cytotoxicity assays. (J. Immunol. Methods. 1983, 65 (1-2), 55-63; Anne Monks et al). Feasibility of high-flux anticancer drug screen using a diverse panel of cultured human tumor cell lines”. (JNCI, Vol. 83, No. 11, 1991, 757-766).

IC50 [1] [nM] | GI50 [2] [nM] | Structure (SMILES)
67 | 100 | O=C(/C=C/c1ccc(CNC(=O)C23CC4CC(CC(C4)C2)C3)cc1)NO [Example 25, N-{4-[(1E)-3-(hydroxyamino)-3-oxoprop-1-en-1-yl]benzyl}adamantane-1-carboxamide]
43 | 2100 | O=C(C=C1C2CC3CC(C2)CC1C3)NCc1ccc(/C=C/C(=O)NO)cc1 [Example 21, (2E)-N-hydroxy-3-(4-{[(tricyclo[3.3.1.1^3,7]dec-2-ylideneacetyl)amino]methyl}phenyl)acrylamide]
110 | 4200 | O=C(/C=C/c1ccc(CNC(=O)CC2C3CC4CC2CC(O)(C4)C3)cc1)NO (stereo not shown) [Example 24, (2E)-N-hydroxy-3-[4-({[(5-hydroxyadamant-2-yl)acetyl]amino}methyl)phenyl]acrylamide]
 | 1260 | O=C(CCCCCCC(=O)Nc1ccccc1)NO [SAHA, suberoylanilide hydroxamic acid, reference compound]
0.385 | 10 | O=C(/C=C/c1ccc(CNCC23CC4CC(CC2C4)C3)cc1)NO [Example 32, (2E)-N-hydroxy-3-(4-{[(tricyclo[3.3.1.0^3,7]non-3-ylmethyl)amino]methyl}phenyl)acrylamide]
80 | 4400 | O=C(/C=C/c1ccc(CNCC(=O)NC23CC4CC(CC(C4)C2)C3)cc1)NO [Example 28, (2E)-3-[4-({[2-(adamant-1-ylamino)-2-oxoethyl]amino}methyl)phenyl]-N-hydroxyacrylamide]
1.8 | 180 | O=C(/C=C/c1ccc(CNC(=O)CC23CC4CC(CC(C4)C2)C3)cc1)NO [Example 23, (2E)-3-(4-{[(adamant-1-ylacetyl)amino]methyl}phenyl)-N-hydroxyacrylamide]
28 | 220 | O=C(/C=C/c1ccc(CNCCC2C3CC4CC2CC(O)(C4)C3)cc1)NO (stereo not shown) [Example 19, (2E)-N-hydroxy-3-[4-({[(5-hydroxyadamant-2-yl)ethyl]amino}methyl)phenyl]acrylamide]
10.4 | 200 | O=C(C=Cc1ccc(CNCCNC(=O)C23CC4CC(CC(C4)C2)C3)cc1)NO [Example 29, N-[2-({4-[(1E)-3-(hydroxyamino)-3-oxoprop-1-en-1-yl]benzyl}amino)ethyl]adamantine-1-carboxamide]
8 | 1200 | O=C(/C=C/c1ccc(CNC(=O)CC2C3CC4CC(C3)CC2C4)cc1)NO (stereo not shown) [Example 20, (2E)-N-hydroxy-3-(4-{[(adamantyl-2-ylacetyl)amino]methyl}phenyl)acrylamide]

Second part, the compound before the results:

Structure (SMILES) | IC50 [1] [nM] | GI50 [2] [nM]
Nc1ccccc1NC(=O)/C=C/c1ccc(CNC23CC4CC(CC(O)(C4)C2)C3)cc1 [Example 13, (2E)-N-(2-aminophenyl)-3-{4-[(3-hydroxyadamant-1-ylamino)methyl]phenyl}acrylamide] | 5400 | 52000
O=C(/C=C/c1ccc(CNC2C3CC4CC(C3)CC2C4)cc1)NO (stereo not shown) [Example 15, (2E)-3-{4-[(adamant-2-ylamino)methyl]phenyl}-N-hydroxyacrylamide] | 60 | 150
O=C(/C=C/c1ccc(CNC23CC4CC(CC(Cl)(C4)C2)C3)cc1)NO [Example 7, (2E)-3-(4-{[(3-chloroadamant-1-yl)amino]methyl}phenyl)-N-hydroxyacrylamide] | 40 | 9700
O=C(/C=C/c1ccc(CNC2C3CC4CC2CC(O)(C4)C3)cc1)NO (stereo not shown) [Example 16, (2E)-N-hydroxy-3-(4-{[(5-hydroxyadamant-2-yl)amino]methyl}phenyl)acrylamide] | 160 | 400
O=C(/C=C/c1ccc(CNC23CC4CC(CC(O)(C4)C2)C3)cc1)NO [Example 2, (2E)-N-hydroxy-3-(4-{[(3-hydroxyadamant-1-yl)amino]methyl}phenyl)acrylamide] | 250 | 5100
O=C(/C=C/c1ccc(CNC23CC4CC(CC(CO)(C4)C2)C3)cc1)NO [Example 9, (2E)-3-(4-{[(3-hydroxymethyladamant-1-yl)amino]methyl}phenyl)-N-hydroxy acrylamide] | 240 | 6100
CC12CC3CC(C)(C1)CC(NCc1ccc(/C=C/C(=O)NO)cc1)(C3)C2 [Example 5, (2E)-3-(4-{[(3,5-dimethyladamant-1-yl)amino]methyl}phenyl)-N-hydroxyacrylamide] | 30 | 1100
COC12CC3CC(CC(NCc4ccc(/C=C/C(=O)NO)cc4)(C3)C1)C2 [Example 3, (2E)-N-hydroxy-3-(4-{[(3-methoxyadamant-1-yl)amino]methyl}phenyl)acrylamide] | 260 | 5200
CCOC12CC3CC(CC(NCc4ccc(/C=C/C(=O)NO)cc4)(C3)C1)C2 [Example 4, (2E)-N-hydroxy-3-(4-{[(3-ethoxyadamant-1-yl)amino]methyl}phenyl)acrylamide] | 460 | 3300
O=C(/C=C/c1ccc(CNC23CC4CC(C2)CC(c2ccccc2)(C4)C3)cc1)NO [Example 8, (2E)-3-(4-{[(3-phenyladamant-1-yl)amino]methyl}phenyl)-N-hydroxyacrylamide] | 440 | 3500
O=C(/C=C/c1ccc(CNC23CC4CC(CC(C4)C2)C3)cc1)NO [Example 1, (2E)-3-{4-[(adamant-1-ylamino)methyl]phenyl}-N-hydroxyacrylamide] | 70 | 1800
Nc1ccccc1NC(=O)/C=C/c1ccc(CNC23CC4CC(CC(C4)C2)C3)cc1 [Example 12, (2E)-N-(2-aminophenyl)-3-{4-[(adamant-1-ylamino)methyl]phenyl}acrylamide] | 4300 | 7000
O=C(C=Cc1ccc(CNCCC2C3CC4CC(C3)CC2C4)cc1)NO (stereo not shown) [Example 17, (2E)-N-hydroxy-3-[4-({[adamant-2-yl)ethyl]amino}methyl)phenyl]acrylamide] | 0.28 | 290
O=C(/C=C/c1ccc(CNCC23CC4CC(CC(O)(C4)C2)C3)cc1)NO [Example 11, (2E)-N-hydroxy-3-[4-({[(3-hydroxyadamant-1-yl)methyl]amino}methyl)phenyl]acrylamide] | 9.06 | 100
O=C(/C=C/c1ccc(CN2CC3CC4CC(C3)CC2C4)cc1)NO [Example 6, (2E)-3-[4-(4-azatricyclo[4.3.1.1^3,8]undec-4-ylmethyl)phenyl]-N-hydroxyacrylamide] | 110 | 2800
